From patent US11981686B2, “Urea compound having substituent” (DAIICHI SANKYO COMPANY, LIMITED, priority 2019, dated 2024)

Molecular target: SIRT6 enzyme (Homo sapiens, UniProt Q8N6T7)
Experiment: Measurement of deacetylation activity (SIRT6, AlphaLISA, H3K9(Ac) peptide)
Format: biochemical
Settings: SIRT6 25 ng/mL, H3K9(Ac) biotin peptide 2 nM, NAD 10 μM, room temperature 30 minutes, duplicate
Protocol: The reaction was performed in duplicate using a white 384-well plate (3824, Corning or 6008350, PerkinElmer) at a final reaction liquid volume of 20.1 μL. As a control for calculating the enzyme activity, the enzyme-added (DMSO (+)) and enzyme-free (DMSO (−)) wells were set at n=8. Test substances (examples of final concentrations: 0.046, 0.14, 0.41, 1.2, 3.7, 11, 33, and 100 μM) at a concentration of 100 times or 0.1 μL of DMSO was dispensed into the plate and 5 μL of SIRT6 enzyme (prepared by Daiichi Sankyo RD Novare Co., Ltd., final concentration: 25 ng/mL) diluted with an assay buffer (10 mM Tris-HCl pH of 8.0, 0.1% BSA, 0.01% Tween 20, 1 mM DTT, 12.5% Glycerol) was added thereto. The enzymatic reaction was started by adding 5 μL of a mixed solution [Lys(Ac)9]-Histone H3 (1-21)-NH2, H3K9 (Ac), biotin-labeled, amide (AnaSpec, AS-64190, final concentration: 2 nM) and β-nicotinamide adenine dinucleotide (Sigma-Aldrich, N8285-15VL, final concentration: 10 μM), and the reaction was performed at room temperature for 30 minutes. 10 μL of a mixed solution of nicotinamide (Sigma-Aldrich, 72340-100G, final concentration: 100 mM) prepared with AlphaLISA Epigenetics Buffer (PerkinElmer, AL008C), AlphaLISA Anti-unmodified Histone H3 Lysine 9/Lysine 27 (H3K9/K27) Acceptor Beads (PerkinElmer, AL138, final concentration: 10 μg/mL), and AlphaScreen Streptavidin Donor beads (PerkinElmer, 6760002, final concentration: 5 μg/mL) was added thereto, the reaction was performed at room temperature for 60 minutes and then stopped, and acetylation was detected. The emission intensity was measured by EnVision (PerkinElmer).
The relative enzyme activity (%) of the test substance was calculated by the following equation. Relative enzyme activity (%)=[(emission intensity of test substance-added well−emission intensity of DMSO (−) well)/(emission intensity of DMSO (+) well−emission intensity of DMSO (−) well)]×100
The EC150 (the concentration of the compound showing a relative enzyme activity of 150%) of the test substance was calculated based on Sigmoidal dose-response (variable slope) of GraphPad Prism (GraphPad Software) using the value of the relative enzyme activity (%) at each concentration, and the results are listed in Tables 1-1 to 1-5.

Chain of SIRT6 enzyme (Q8N6T7 whole entry, species assumed): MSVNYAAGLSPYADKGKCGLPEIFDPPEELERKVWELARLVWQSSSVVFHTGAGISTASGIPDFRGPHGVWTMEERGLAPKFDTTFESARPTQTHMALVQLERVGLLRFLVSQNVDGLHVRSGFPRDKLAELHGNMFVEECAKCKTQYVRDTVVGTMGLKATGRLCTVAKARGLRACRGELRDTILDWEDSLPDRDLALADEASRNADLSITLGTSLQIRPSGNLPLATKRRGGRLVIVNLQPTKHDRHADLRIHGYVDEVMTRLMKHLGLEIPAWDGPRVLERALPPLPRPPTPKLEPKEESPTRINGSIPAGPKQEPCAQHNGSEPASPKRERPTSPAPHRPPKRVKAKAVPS

Compound	EC150 (the concentration of the compound showing a relative enzyme activity of 150%) [μm]
CNC(=O)Nc1nc2c(s1)C1COCC(C2)N1c1nnc(-c2cccc(C(=O)C3CCC3)c2)o1 (centres unmarked) [Example 113, N-(10-{5-[3-(cyclobutanecarbonyl)phenyl]-1,3,4-oxadiazol-2-yl}-4,7,8,9-tetrahydro-5H-4,8-epiminooxocino[5,4-d][1,3]thiazol-2-yl)-N′-methylurea]	2.6
C[C@H](CO)NC(=O)Nc1nc2c(s1)[C@@H]1COC[C@H](C2)N1c1cc(-c2cccc(C(F)F)c2)on1 [Example 156, N-[(4S,8S)-10-{5-[3-(difluoromethyl)phenyl]-1,2-oxazol-3-yl}-4,7,8,9-tetrahydro-5H-4,8-epiminooxocino[5,4-d][1,3]thiazol-2-yl]-N′-[(2R)-1-hydroxypropan-2-yl]urea]	1
CNC(=O)Nc1nc2c(s1)[C@@H]1COC[C@H](C2)N1c1nnc(-c2cccc(C(=O)C3CC3)c2)o1 [Example 21, N-[(4S,8S)-10-{5-[3-(cyclopropanecarbonyl)phenyl]-1,3,4-oxadiazol-2-yl}-4,7,8,9-tetrahydro-5H-4,8-epiminooxocino[5,4-d][1,3]thiazol-2-yl]-N′-methylurea]	1.5
CNC(=O)Nc1nc2c(s1)[C@@H]1COC[C@H](C2)N1c1ncc(-c2cccc(OC)n2)o1 [Example 15, N-{(4S,8S)-10-[5-(6-methoxypyridin-2-yl)-1,3-oxazol-2-yl]-4,7,8,9-tetrahydro-5H-4,8-epiminooxocino[5,4-d][1,3]thiazol-2-yl}-N′-methylurea]	1.1
CCc1cccc(-c2nnc(N3[C@@H]4COC[C@H]3c3sc(NC(=O)NC)nc3C4)o2)c1 [Example 118, N-{(4S,8S)-10-[5-(3-ethylphenyl)-1,3,4-oxadiazol-2-yl]-4,7,8,9-tetrahydro-5H-4,8-epiminooxocino[5,4-d][1,3]thiazol-2-yl}-N′-methylurea]	1.8
C[C@H](CO)NC(=O)Nc1nc2c(s1)[C@@H]1COC[C@H](C2)N1c1ncc(-c2cccc(OC(F)F)c2)o1 [Example 70, N-[(4S,8S)-10-{5-[3-(difluoromethoxy)phenyl]-1,3-oxazol-2-yl}-4,7,8,9-tetrahydro-5H-4,8-epiminooxocino[5,4-d][1,3]thiazol-2-yl]-N′-[(2R)-1-hydroxypropan-2-yl]urea]	0.45
CC(=O)N1CC(NC(=O)Nc2nc3c(s2)[C@@H]2COC[C@H](C3)N2c2ncc(-c3cccc(OC(F)F)n3)o2)C1 [Example 183, N-(1-acetylazetidin-3-yl)-N′-[(4S,8S)-10-{5-[6-(difluoromethoxy)pyridin-2-yl]-1,3-oxazol-2-yl}-4,7,8,9-tetrahydro-5H-4,8-epiminooxocino[5,4-d][1,3]thiazol-2-yl]urea]	0.24
O=C(NCCOCCO)Nc1nc2c(s1)CN(c1nc(C3CCC(F)(F)CC3)no1)CC2 [Example 34, N-{5-[3-(4,4-difluorocyclohexyl)-1,2,4-oxadiazol-5-yl]-4,5,6,7-tetrahydro[1,3]thiazolo[5,4-c]pyridin-2-yl}-N′-[2-(2-hydroxyethoxy)ethyl]urea]	1.9
C[C@@H](O)CNC(=O)Nc1nc2c(s1)[C@@H]1COC[C@H](C2)N1c1cc(-c2ccc(F)cc2)on1 [Example 65, N-{(4S,8S)-10-[5-(4-fluorophenyl)-1,2-oxazol-3-yl]-4,7,8,9-tetrahydro-5H-4,8-epiminooxocino[5,4-d][1,3]thiazol-2-yl}-N′-[(2R)-2-hydroxypropyl]urea]	2.1
CC(C)(CO)NC(=O)Nc1nc2c(s1)[C@@H]1COC[C@H](C2)N1c1cc(-c2ccc(F)cc2)on1 [Example 160, N-{(4S,8S)-10-[5-(4-fluorophenyl)-1,2-oxazol-3-yl]-4,7,8,9-tetrahydro-5H-4,8-epiminooxocino[5,4-d][1,3]thiazol-2-yl}-N′-(1-hydroxy-2-methylpropan-2-yl)urea]	3.2
CNC(=O)Nc1nc2c(s1)C1COCC(C2)N1c1cc(-c2ccc(F)cc2)on1 (centres unmarked) [Example 16, N-{10-[5-(4-fluorophenyl)-1,2-oxazol-3-yl]-4,7,8,9-tetrahydro-5H-4,8-epiminooxocino[5,4-d][1,3]thiazol-2-yl}-N′-methylurea]	4.2
C[C@@H](O)CNC(=O)Nc1nc2c(s1)C1COCC(C2)N1c1nc(-c2ccc(F)cc2)no1 (stereo partly drawn) [Example 82, N-{10-[3-(4-fluorophenyl)-1,2,4-oxadiazol-5-yl]-4,7,8,9-tetrahydro-5H-4,8-epiminooxocino[5,4-d][1,3]thiazol-2-yl}-N′-[(2R)-2-hydroxypropyl]urea]	1.7
CNC(=O)Nc1nc2c(s1)[C@H]1CN(C(=O)OC)C[C@@H](C2)N1c1nc(-c2ccc(F)cc2)no1 (relative stereo) [Example 24, (−)-Methyl (4R*,8R*)-10-[3-(4-fluorophenyl)-1,2,4-oxadiazol-5-yl]-2-[(methylcarbamoyl)amino]-4,7,8,9-tetrahydro-4,8-epimino[1,3]thiazolo[5,4-d]azocine-6(5H)-carboxylate]	0.19
CNC(=O)Nc1nc2c(s1)C1CN(C(=O)OC)CC(C2)N1c1nnc(-c2cccc(C(=O)C3CC3)c2)o1 (centres unmarked) [Example 123, Methyl 10-{5-[3-(cyclopropanecarbonyl)phenyl]-1,3,4-oxadiazol-2-yl}-2-[(methylcarbamoyl)amino]-4,7,8,9-tetrahydro-4,8-epimino[1,3]thiazolo[5,4-d]azocine-6(5H)-carboxylate]	0.66
O=C(Nc1nc2c(s1)[C@@H]1COC[C@H](C2)N1c1nc(-c2ccc(F)cc2)no1)N[C@H]1C[C@@H](O)C1 [Example 85, N-{10-[3-(4-fluorophenyl)-1,2,4-oxadiazol-5-yl]-4,7,8,9-tetrahydro-5H-4,8-epiminooxocino[5,4-d][1,3]thiazol-2-yl}-N′-[(1s,3s)-3-hydroxycyclobutyl]urea]	0.51
COc1ccc2oc(N3[C@@H]4COC[C@H]3c3sc(NC(=O)N[C@H]5CCOC5)nc3C4)nc2c1 [Example 151, N-[(4S,8S)-10-(5-methoxy-1,3-benzoxazol-2-yl)-4,7,8,9-tetrahydro-5H-4,8-epiminooxocino[5,4-d][1,3]thiazol-2-yl]-N′-[(3S)-oxolan-3-yl]urea]	0.78
CCOc1cccc(-c2cnc(N3[C@@H]4COC[C@H]3c3sc(NC(=O)N[C@H]5C[C@H](O)C5)nc3C4)o2)n1 [Example 80, N-{(4S,8S)-10-[5-(6-ethoxypyridin-2-yl)-1,3-oxazol-2-yl]-4,7,8,9-tetrahydro-5H-4,8-epiminooxocino[5,4-d][1,3]thiazol-2-yl}-N′-[(1r,3S)-3-hydroxycyclobutyl]urea]	0.48
O=C(Nc1nc2c(s1)[C@@H]1COC[C@H](C2)N1c1nc(C2(C(F)(F)F)CC2)no1)N[C@@H]1CCOC1 [Example 37, N-[(3R)-oxolan-3-yl]-N′-[(4S,8S)-10-{3-[1-(trifluoromethyl)cyclopropyl]-1,2,4-oxadiazol-5-yl}-4,7,8,9-tetrahydro-5H-4,8-epiminooxocino[5,4-d][1,3]thiazol-2-yl]urea]	4.6
O=C(Nc1nc2c(s1)[C@@H]1COC[C@H](C2)N1c1ncc(-c2cccc(OC(F)F)n2)o1)N[C@@H]1COC[C@H]1O [Example 175, N-[(4S,8S)-10-{5-[6-(difluoromethoxy)pyridin-2-yl]-1,3-oxazol-2-yl}-4,7,8,9-tetrahydro-5H-4,8-epiminooxocino[5,4-d][1,3]thiazol-2-yl]-N′-[(3R,4S)-4-hydroxyoxolan-3-yl]urea]	0.27
[2H]C([2H])([2H])Oc1ccc2oc(N3[C@@H]4COC[C@H]3c3sc(NC(=O)NCC(C)(C)O)nc3C4)nc2c1 [Example 60, N-(2-hydroxy-2-methylpropyl)-N′-[(4S,8S)-10-{5-[(^2H3)methyloxy]-1,3-benzoxazol-2-yl}-4,7,8,9-tetrahydro-5H-4,8-epiminooxocino[5,4-d][1,3]thiazol-2-yl]urea]	1.7
